For assay [1], the system named is m-IMCD3 cells. Nature of the assay: Inhibition of PGE2-stimulated in vitro cyst formation in 3D culture of m-IMCD3 cells. It is filed as cell-based, mouse. The conditions noted are these: Mus musculus, mIMCD3, 144 h; 10 μM test compound; mean cyst area (%) compared to 100% for (DMSO + PGE2) and 0% for DMSO control; 100 nM PGE2; 6 days; read-out: % Cyst area after incubation with 10 μM test compound. Summed up:
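Mouse m-IMCD3 cells grown in 3D collagen I/Matrigel gels. From 18-24 h after plating, compound (0.1% DMSO) plus 100 nM PGE2 were added and replenished at 2-3 days. After 6 days, imaging gave mean cyst area, scaled to 100% for DMSO+PGE2 and 0% for DMSO alone.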

The test system of assay [2] is m-IMCD3 cell culture. In words: Reduction of cAMP levels in m-IMCD3 cell culture media (cAMP ELISA). It is filed as cell-based, mouse. Particulars: compared to 100% for (DMSO + PGE2). From the text:
Experiment 4a: Reduction of cAMP Levels in m-IMCD3 Cell Culture Treated with PDE4 Long Form Activators Activation of intracellular PDE4 long forms leads to a reduction of both intracellular cAMP and externalised cAMP (Omar et al., PNAS 116: 13320-13329, 2019). This reduction may be measured in the cell culture media supernatant of 3D cystic cell cultures, such as in the m-IMCD3 cell cyst suppression assay described in Experiment 4.
Following the completion of the m-IMCD3 cell cyst suppression assay, the cAMP levels in the assay media from individual assay wells was measured using a cAMP ELISA kit (Enzo Life Sciences) according to the manufacturer's instructions.
Treatment with PDE4 long form activators reduced cAMP levels in PGE2-stimulated m-IMCD3 cell culture.
(Cyclic AMP is a second messenger, typically raised through Gs and lowered through Gi signalling.)

Assay [3] relates to MDCK cells. In words: Inhibition of PGE2-stimulated in vitro cyst formation in 3D culture of MDCK cells. The conditions noted are these: total cyst area (%) compared to 100% for (DMSO + PGE2) and 0% for DMSO control, 300 nM PGE2. It is filed as cell-based. As for the experimental part:
HEK 293 and MDCK cells (Public Health England, Cell Culture Collections) were maintained in Dulbecco's Modified Eagle's Medium (DMEM) supplemented with 10% (v/v) fetal bovine serum (FBS) (Seralab), 2 mM L-glutamine and 100 U/ml penicillin streptomycin cocktail (ThermoFisher); termed complete media. Clonal HEK 293 cell lines were maintained in complete media supplemented with 0.6 mg/mL G418 (Enzo Life Sciences). Mouse inner medullary collecting duct (m-IMCD3) cells [American Type Culture Collection (ATCC)] were maintained in media consisting of DMEM/Hams F-12 50/50 Mix (DMEM F12; Corning) supplemented with penicillin streptomycin cocktail (100 U/ml) and FBS (10% v/v) (DMEM F12-10% FBS).
In this study, the well-established three-dimensional (3D) MDCK cell model is used to investigate the effects of PDE4 long form activators on the formation of kidney cysts and evaluate their potential in the treatment of polycystic kidney diseases. 3D cysts are generated based on the method of Mao et al. (Mao, Z., Streets, A. J., Ong, A. C. M. Am. J. Physiol. Renal Physiol. 300 (6): F1375-F1384, 2011), with some modifications.
The assay is conducted in the wells of a 96-well plate culture dish using a total volume of 130 μl of collagen suspension in growth media for each matrix plug per individual well. Rat Collagen I (Fisher Scientific) is prepared on ice by neutralising with 1M NaOH and diluting with a 2×volume of DMEM-2% FBS. 30 μl of collagen/Media mix is added into the well of a 96 well plate and the collagen is set to a gel by incubating at 37° C. for at least 15 minutes. A second layer of 100 μl collagen/Matrigel suspension containing MDCK cells (1.0×10^4 MDCK cells per well) is then layered over the first layer and the collagen/cell mix again set to a gel by incubating at 37° C. 100 μl DMEM growth media is added and cells are incubated at 37° C. for 24 hours. 24 hours after cell seeding, DMEM-2% FBS is added along with the test compound indicated in the presence of 300 nM prostaglandin E2 (PGE2) (Sigma Aldrich) in quadruplicate wells per condition. Media, together with the test compound and PGE2 are replenished every 3 days for 10-15 days.
After 10-15 days of culture z stack images of the wells are captured using the Nikon Eclipse Ti2-E microscope. Nikon General Analysis software is used to measure the following parameters in each well: the mean cyst area, the number of cysts, and the total cyst area.
PDE4 long form activators inhibited in vitro cyst formation in MDCK cells. Data are shown in Table 6 as total cyst area (%), compared to 100% for (DMSO+PGE2) and 0% for DMSO control.

Where a name gives a salt, the structure may show the parent alone.

As to `CN1CCC(c2nc3ccc(C(=O)NC4CCCC4)cc3s2)CC1` [Example 151, N-cyclopentyl-2-(1-methylpiperidin-4-yl)benzo[d]thiazole-6-carboxamide], in assay [1], the activity at 10 µM was 10%. In addition, the “cAMP level (% of PGE2-stimulated) after incubation with 10 μM test compound” value (“cAMP level (% of PGE2-stimulated)” below) in assay [2] was 54%.

For `O=C(NC1CCC(F)(F)CC1)c1ccc2nc(C3CCN(CCO)CC3)sc2c1` [Example 174, N-(4,4-difluorocyclohexyl)-2-(1-(2-hydroxyethyl)piperidin-4-yl)benzo[d]thiazole-6-carboxamide], the “cAMP level (% of PGE2-stimulated)” value in assay [2] is listed as 27%.

Regarding `O=C(NC1CCC(F)(F)CC1)c1ccc2nc(N3CC4CCC(C3)N4)sc2c1` [Example 245, 2-(3,8-diazabicyclo[3.2.1]octan-3-yl)-N-(4,4-difluorocyclohexyl)-benzo[d]thiazole-6-carboxamide], the “% Cyst area after incubation with 1 μM test compound” value (“% Cyst area after incubation” for short) in assay [3] amounted to 4%.

Regarding `O=C(NC1CCC(F)(F)CC1)c1ccc2nc(N3C4CCC3CNC4)sc2c1` [Example 240, 2-(3,8-diazabicyclo[3.2.1]octan-8-yl)-N-(4,4-difluorocyclohexyl)-benzo[d]thiazole-6-carboxamide], in assay [1], the activity at 10 µM is 5%. Further, the “cAMP level (% of PGE2-stimulated)” value in assay [2] is recorded as 41%.

Regarding `COc1c(C(=O)NC2CCCC2)ccc2nc(N3C4CCC3CNC4)sc12` [Example 236, 2-(3,8-diazabicyclo[3.2.1]octan-8-yl)-N-cyclopentyl-7-methoxybenzo[d]thiazole-6-carboxamide], in assay [3], the “% Cyst area after incubation” value was determined as 20%.

As for `CN1CCN(c2nc3ccc(C(=O)NC4CCCC4)cc3s2)CC12CC2` [Example 260, N-cyclopentyl-2-(4-methyl-4,7-diazaspiro[2.5]octan-7-yl)benzo[d]thiazole-6-carboxamide], the “% Cyst area after incubation” value in assay [3] is given as 11%.

For `CC(C)NC(=O)c1cc(C#N)c2nc(N3C4CCC3CNC4)sc2c1` [Example 238, 2-(3,8-diazabicyclo[3.2.1]octan-8-yl)-4-cyano-N-isopropylbenzo[d]thiazole-6-carboxamide], the “% Cyst area after incubation” value in assay [3] came to 24%.

As to `O=C(N[C@H]1CCOc2ccccc21)c1ccc2nc(N3CCNCC3)sc2c1` [Example 83, (S)-N-(chroman-4-yl)-2-(piperazin-1-yl)benzo[d]thiazole-6-carboxamide hydrochloride], the activity at 10 µM in assay [1] is 6%. Also, the “% Cyst area after incubation” value in assay [3] was −1%.

With `O=C(NC1CCC(F)(F)CC1)c1ccc2nc(N3CC4CCC(C3)N4CCO)sc2c1` [Example 247, N-(4,4-difluorocyclohexyl)-2-(8-(2-hydroxyethyl)-3,8-diazabicyclo[3.2.1]octan-3-yl)benzo[d]thiazole-6-carboxamide], the “% Cyst area after incubation” value in assay [3] is 1%.
